# Measurements: patent US11491148B2, “Amide derivatives useful in the treatment of HBV infection or HBV-induced diseases” (Janssen Sciences Ireland Unlimited Company, priority 2019, dated 2022)
# Read-outs that look alike come from different tables or passages of the source.
# Columns and labels:
# [1] = system: HepG2.117 cells; experiment: Cytotoxicity, ATPlite cell viability (TOX-HepG2.117); type: cell-based, human
# Experimental: (§1) Cytotoxicity of the compounds was tested using HepG2 or HepG2.117 cells, incubated for 3 days in the presence of compounds. The viability of the cells was assessed using the Perkin Elmer ATPlite Luminescence Assay System.”
# [2] = system: HBV; experiment: Anti-HBV activity, intracellular HBV DNA by real-time PCR (HBV-AVE-HepG2.117); type: cell-based, Hepatitis B virus; settings: read-out: HBV-AVE-HepG2.117 EC50 (μM; mean value)
# Experimental: The anti HBV activity was measured using the HepG2.117 cell line, a stable, inducible HBV producing cell line, which replicates HBV in the absence of doxicycline (Tet-off system). The HepG2 cell line is available from ATCC®) under number HB-8065. Transfection of the HepG2 cell line can be as described in Sun and Nassal 2006 Journal of Hepatology 45 (2006) 636-645 “Stable HepG2- and Huh7-based human hepatoma cell lines for efficient regulated expression of infectious hepatitis B virus”.
# For the antiviral assay, HBV replication was induced, followed by a treatment with serially diluted compound in 96-well plates. After 3 days of treatment, the antiviral activity was determined by quantification of intracellular HBV DNA using real-time PCR and an HBV specific primer set and probe.
# [3] = Cytotoxicity, ATPlite cell viability (TOX-HepG2.117); type: cell-based, human; settings: human; HepG2.117 cells, incubated for 3 days, ATPlite, mean value
# Experimental: as §1
# [4] = HepG2.117 cell line, 3 days of treatment, intracellular HBV DNA, mean value
# [5] = Hepatitis B virus, HepG2.117, 72 h, HepG2.117 cell line, 3 days of treatment, intracellular HBV DNA, mean value
Structure (SMILES),CC50 [1] [µM],"EC50 [2, 4] [µM]",CC50 at 3 days [3] [µM],"EC50 [2, 5] [µM]","EC50 ([2]; Hepatitis B virus, HepG2.117, 72 h) [µM]"
C[C@H]1[C@H](C(=O)Nc2cc(F)c(F)c(F)c2)CCN1C(=O)C(=O)NC1(c2c[nH]nn2)CC(F)(F)C1 [C3′],> 50,> 2.5,,,
"C[C@H]1[C@@H](C(=O)Nc2cc(F)c(F)c(F)c2)CCN1C(=O)C(=O)N[C@@H](CC(F)(F)F)c1c[nH]nn1 (single isomer, unassigned) [C29S*]",,,> 50,0.042,
"O=C(NC1(c2c[nH]nn2)CC(F)(F)C1)C(=O)N1CC[C@H](C(=O)Nc2cc(F)c(F)c(F)c2)C1 [C4, (3S)-1-[{[3,3-Difluoro-1-(1H-1,2,3-triazol-4-yl)cyclobutyl]amino}(oxo)acetyl]-N-(3,4,5-trifluorophenyl)pyrrolidine-3-carboxamide]",,,> 50,0.053,
C[C@H]1[C@H](C(=O)Nc2ccc(F)c(C#N)c2)CCN1C(=O)C(=O)NC1(c2c[nH]nn2)CC(F)(F)C1 [C6′],> 50,2.91,,,
O=C(NC1(c2c[nH]nn2)CC(F)(F)C1)C(=O)N1CC[C@H](C(=O)Nc2ccnc(C(F)F)c2)C1 [C12],,,> 50,1.29,
"C[C@H]1[C@@H](C(=O)Nc2ccc(F)c(Cl)c2)CCN1C(=O)C(=O)N[C@H](CC(F)(F)F)c1c[nH]nn1 (single isomer, unassigned) [C34R*]",,,> 50,0.003,
C[C@H]1[C@@H](C(=O)Nc2ccc(F)c(Cl)c2F)CCN1C(=O)C(=O)NC1(c2c[nH]nn2)CC(F)(F)C1 [C17],,,> 50,0.01,
"O=C(NC1(c2c[nH]nn2)CC(F)(F)C1)C(=O)N1CC[C@H](C(=O)Nc2ccc(F)c(Cl)c2)C1 [C5, (3S)—N-(3-Chloro-4-fluorophenyl)-1-[{[3,3-difluoro-1-(1H-1,2,3-triazol-4-yl)cyclobutyl]amino}(oxo)acetyl]pyrrolidine-3-carboxamide]",,,> 50,,0.04
"C[C@H]1[C@@H](C(=O)Nc2ccc(Cl)c(Cl)c2)CCN1C(=O)C(=O)N[C@@H](CC(F)(F)F)c1c[nH]nn1 (single isomer, unassigned) [C25S*]",,,> 50,0.074,
C[C@H]1[C@@H](C(=O)Nc2ccc(F)c(C(F)(F)F)c2)CCN1C(=O)C(=O)NC1(c2c[nH]nn2)CC(F)(F)C1 [C18],,,> 50,0.012,
"C[C@H]1[C@@H](C(=O)Nc2cc(F)c(F)c(F)c2)CCN1C(=O)C(=O)N[C@H](CC(F)(F)F)c1c[nH]nn1 (single isomer, unassigned) [C29R*]",,,> 50,0.014,
